Assay results: patent publication US20200407398A1, “Short Proline-Rich Lipopeptide Potentiates Minocycline and Rifampicin Against Multidrug-and Extensively Drug-Resistant Pseudomonas Aeruginosa” (priority 2018, published 2020)
Square brackets hold non-standard residues; d marks the D form. Peptide text beside a SMILES is read from it. * marks the point of attachment. Lauroyl = CCCCCCCCCCCC(=O)*

Experiments:
[1] = system: P. aeruginosa 100036 (MDR/XDR); assay: microbe, parasite or virus in culture; conditions: P. aeruginosa 100036
Protocol: (§1) We evaluated the activity of SPRLPs in combination with fifteen clinically-used antibiotics against P. aeruginosa. Antibiotics tested included fluoroquinolones (moxifloxacin, ciprofloxacin and levofloxacin), aminoglycosides (gentamicin, tobramycin and amikacin), cephalosporins (ceftazidime and cefotaxime), carbapenems (meropenem and doripenem), aztreonam, rifampicin, minocycline, colistin and fosfomycin. The SPRLPs were screened initially at a fixed concentration of 8 μg/mL (5 μM) in combination with antibiotics against wild-type P. aeruginosa PAO1. We assessed potentiation by at least a four-fold absolute MIC reduction of the antibiotic, after which synergism was further validated by a conventional checkerboard assay. A fractional inhibitory concentration (FIC) index of ≤0.5, 0.5<x≤4 or >4 was interpreted as synergistic, indifferent or antagonistic interaction, respectively (31). FIC index was obtained by adding the FIC values of the antibiotic and the SPRLP adjuvant. FIC of antibiotics was calculated by dividing the MIC of the antibiotic in the presence of the adjuvant by the MIC of the antibiotic alone. Similarly, the FIC of adjuvant was calculated via dividing the MIC of the adjuvant in the presence of the antibiotic by the MIC of the adjuvant alone.
(§2) Isolates used in this study were either obtained from the American Type Culture Collection (ATCC), the Canadian National Intensive Care Unit (CAN-ICU) surveillance study (27) or the Canadian Ward Surveillance (CANWARD) study (28). Clinical isolates belonging to the CAN-ICU and CANWARD studies were recovered from patients suffering a presumed infectious disease entering or admitted in a participating medical center across Canada during the time of study. MDR P. aeruginosa strains in this study refer to those that are resistant to aminoglycosides, fluoroquinolones, cephalosporins, and carbapenems while XDR strains are those that are resistant to aminoglycosides, fluoroquinolones, cephalosporins, carbapenems, aztreonam and penicillin+β-lactamase inhibitor combination (39, 40).
(§3) Microbroth dilution susceptibility test following the Clinical and Laboratory Standards Institute (CLSI) guidelines (32) was performed to assess the in vitro antibacterial activity of SPRLPs. Overnight grown bacterial cultures were diluted in saline to achieve a 0.5 McFarland turbidity, followed by 1:50 dilution in Mueller-Hinton broth (MHB) for inoculation to a final concentration of 5×10^5 colony forming units/mL. The assay was done on a 96-well plate to which the agents of interest were 2-fold serially diluted in MHB and incubated with equal volumes of inoculum at 37° C. for 18 hours. MIC was determined as the lowest concentration to inhibit visible bacterial growth in form of turbidity, which was confirmed using EMax Plus microplate reader (Molecular Devices, USA) at a wavelength of 590 nm. The well containing MHB broth with or without bacterial cells was used as positive or negative control, respectively.
(§4) The assay was performed on a 96-well plate, to which the agents of interest was 2-fold serially diluted in working MHB. Prior to serial dilution, SPRLP was added to the working MHB media so that a fixed final concentration of 8 μg/mL (5 μM) SPRLP per well was achieved. To ensure that the assay was working, the MIC determination test of the studied antibiotic (without SPRLP) was included on the same plate. Similar MIC results between the assay comparator and an independent MIC determination test (on a different plate) ensured validity of the synergy test. Overnight grown bacterial cultures were diluted in saline to 0.5 McFarland turbidity, followed by 1:50 dilution in MHB (without SPRLP) and inoculation into each well to a final concentration of approximately 5×10^5 colony forming units/mL. Wells containing only MHB (without SPRLP) with or without bacterial cells were used as positive or negative control, respectively.

[2] = system: P. aeruginosa 101243 (colistin-resistant, MDR/XDR); assay: microbe, parasite or virus in culture; conditions: P. aeruginosa 101243 (colistin-resistant)
Protocol: as §1, §2, §3, §4

[3] = system: P. aeruginosa 101885 (MDR/XDR); assay: microbe, parasite or virus in culture; conditions: P. aeruginosa 101885
Protocol: as §1, §2, §3, §4

[4] = system: P. aeruginosa 259-96918 (MDR/XDR); assay: microbe, parasite or virus in culture; conditions: P. aeruginosa 259-96918
Protocol: as §1, §2, §3, §4

[5] = system: P. aeruginosa 260-97103 (MDR/XDR); assay: microbe, parasite or virus in culture; conditions: P. aeruginosa 260-97103
Protocol: as §1, §2, §3, §4

[6] = system: P. aeruginosa 262-101856 (MDR/XDR); assay: microbe, parasite or virus in culture; conditions: P. aeruginosa 262-101856
Protocol: as §1, §2, §3, §4

[7] = system: P. aeruginosa 264-104354 (MDR/XDR); assay: microbe, parasite or virus in culture; conditions: P. aeruginosa 264-104354
Protocol: as §1, §2, §3, §4

[8] = system: P. aeruginosa 91433 (colistin-resistant, MDR/XDR); assay: microbe, parasite or virus in culture; conditions: P. aeruginosa 91433 (colistin-resistant)
Protocol: as §1, §2, §3, §4

[9] = system: wild-type and MDR/XDR P. aeruginosa clinical isolates
Protocol: as §1, §2, §3, §4

[10] = MIC of minocycline in the presence of 8 μg/mL (5 μM) lipopeptide
[11] = MIC of rifampicin in the presence of 8 μg/mL (5 μM) lipopeptide
[12] = antibiotic or lipopeptide alone
[13] = degree of minocycline potentiation in the presence of 8 μg/mL (5 μM) lipopeptide
[14] = degree of rifampicin potentiation in the presence of 8 μg/mL (5 μM) lipopeptide
[15] = checkerboard assay, P. aeruginosa

CCCCCCCCCCCC(=O)N1CCC[C@@H]1C(=O)N[C@H](CCCNC(=N)N)C(=O)N1CCC[C@@H]1C(=O)N[C@H](CCCNC(=N)N)C(=O)N1CCC[C@@H]1C(=O)N[C@H](CCCNC(=N)N)C(=O)N1CCC[C@@H]1C(N)=O [C12-prp] (Lauroyl-[dP][dR][dP][dR][dP][dR][dP]-NH2)
Absolute MIC MIN [1, 10]: 8 µg/mL | Absolute MIC RMP [1, 11]: 4 µg/mL | MIC (agent alone) [1, 12]: >128 µg/mL | Potentiation [1, 13]: 2-fold | Potentiation [1, 14]: 4-fold | Absolute MIC MIN [2, 10]: 2 µg/mL | Absolute MIC RMP [2, 11]: 0.5 µg/mL | MIC (agent alone) [2, 12]: >128 µg/mL | Potentiation [2, 13]: 2-fold | Potentiation [2, 14]: 8-fold | Absolute MIC MIN [3, 10]: 8 µg/mL | Absolute MIC RMP [3, 11]: 4 µg/mL | MIC (agent alone) [3, 12]: >128 µg/mL | Potentiation [3, 13]: 2-fold | Potentiation [3, 14]: 4-fold | Absolute MIC MIN [4, 10]: 4 µg/mL | Absolute MIC RMP [4, 11]: 2 µg/mL | MIC (agent alone) [4, 12]: >128 µg/mL | Potentiation [4, 13]: 4-fold | Potentiation [4, 14]: 8-fold | Absolute MIC MIN [5, 10]: 2 µg/mL | Absolute MIC RMP [5, 11]: 4 µg/mL | MIC (agent alone) [5, 12]: >128 µg/mL | Potentiation [5, 13]: 8-fold | Potentiation [5, 14]: 4-fold | Absolute MIC MIN [6, 10]: 16 µg/mL | Absolute MIC RMP [6, 11]: 256 µg/mL | MIC (agent alone) [6, 12]: >128 µg/mL | Potentiation [6, 13]: 4-fold | Potentiation [6, 14]: 2-fold | Absolute MIC MIN [7, 10]: 4 µg/mL | Absolute MIC RMP [7, 11]: 2 µg/mL | MIC (agent alone) [7, 12]: >128 µg/mL | Potentiation [7, 13]: 8-fold | Potentiation [7, 14]: 4-fold | Absolute MIC MIN [8, 10]: 4 µg/mL | Absolute MIC RMP [8, 11]: 2 µg/mL | MIC (agent alone) [8, 12]: >128 µg/mL | Potentiation [8, 13]: 8-fold | Potentiation [8, 14]: 8-fold | interaction with minocycline (in words) [9, 15]: potentiated | interaction with rifampicin (in words) [9, 15]: potentiated | MIC (lipopeptide alone) ([9]; wild-type and clinical isolates of P. aeruginosa): > 128 µg/mL
